Assay results: patent US20240360134A1, “PYRAZOLOPYRIMIDINES AND THEIR USES AS PDGFR INHIBITORS” (priority 2021, published 2024)
Like-named read-outs stand apart in the source and are kept apart here.

Assays:
[1] = biological target: Tb-labeled inactive PDGFRβ (Homo sapiens (Human), UniProt P09619); assay: biochemical; type: binding
[2] = biological target: His6-TEV-PDGFRβ (557-1016) (Homo sapiens (Human), UniProt P09619); assay: PDGFRβ HTRF Assay; type: biochemical
VEGFR2, unphosphorylated = VEGFR2, unphosphorylated (Homo sapiens (Human), UniProt P35968); assay: VEGFR ADP GLO assay; type: biochemical; conditions: 5 nM VEGFR2, 1.2 mM ATP, 1 mg/mL Srctide, 180 min
Chain of VEGFR2, unphosphorylated (P35968 whole entry, looked up): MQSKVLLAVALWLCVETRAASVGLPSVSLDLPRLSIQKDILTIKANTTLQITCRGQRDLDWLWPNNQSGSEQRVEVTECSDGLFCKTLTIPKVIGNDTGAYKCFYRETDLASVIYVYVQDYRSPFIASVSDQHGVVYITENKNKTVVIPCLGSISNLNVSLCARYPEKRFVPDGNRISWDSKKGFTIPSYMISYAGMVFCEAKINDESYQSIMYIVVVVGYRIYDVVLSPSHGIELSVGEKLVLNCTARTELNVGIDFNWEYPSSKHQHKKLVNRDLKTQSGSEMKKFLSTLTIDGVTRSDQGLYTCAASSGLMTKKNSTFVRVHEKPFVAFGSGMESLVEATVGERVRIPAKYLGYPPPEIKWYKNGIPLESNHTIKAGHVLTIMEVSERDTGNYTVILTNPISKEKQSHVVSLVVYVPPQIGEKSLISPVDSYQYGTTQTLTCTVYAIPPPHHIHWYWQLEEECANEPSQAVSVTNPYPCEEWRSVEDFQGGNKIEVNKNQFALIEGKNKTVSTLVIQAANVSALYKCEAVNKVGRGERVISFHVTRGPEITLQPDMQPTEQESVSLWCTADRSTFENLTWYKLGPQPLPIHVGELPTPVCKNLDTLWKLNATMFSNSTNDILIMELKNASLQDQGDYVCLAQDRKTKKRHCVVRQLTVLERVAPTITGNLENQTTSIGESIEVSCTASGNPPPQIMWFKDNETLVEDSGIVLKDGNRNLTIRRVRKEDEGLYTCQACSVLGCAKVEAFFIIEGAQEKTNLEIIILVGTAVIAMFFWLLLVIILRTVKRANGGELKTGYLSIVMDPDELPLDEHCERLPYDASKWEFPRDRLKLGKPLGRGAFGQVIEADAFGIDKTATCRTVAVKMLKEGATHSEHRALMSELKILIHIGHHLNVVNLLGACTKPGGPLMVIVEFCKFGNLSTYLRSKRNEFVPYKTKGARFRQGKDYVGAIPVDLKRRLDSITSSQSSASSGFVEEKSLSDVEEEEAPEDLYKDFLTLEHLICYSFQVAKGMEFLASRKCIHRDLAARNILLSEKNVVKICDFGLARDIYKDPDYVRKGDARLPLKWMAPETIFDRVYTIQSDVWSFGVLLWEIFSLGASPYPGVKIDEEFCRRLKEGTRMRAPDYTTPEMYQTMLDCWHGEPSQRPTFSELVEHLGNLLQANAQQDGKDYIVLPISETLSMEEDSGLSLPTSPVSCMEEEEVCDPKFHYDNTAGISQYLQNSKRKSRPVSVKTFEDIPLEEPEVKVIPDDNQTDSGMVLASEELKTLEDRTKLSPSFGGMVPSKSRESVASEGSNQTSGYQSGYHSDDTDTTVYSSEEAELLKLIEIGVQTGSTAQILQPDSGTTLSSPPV
Procedure, shortened: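 Unphosphorylated kinase (10 nM 2× solution) pre-incubated 30 min at RT with compounds (11-point, 3-fold, top 10 µM), then reacted 180 min with srctide and ATP (2×: 2 mg/mL, 2.4 mM) in HEPES pH 7.5 buffer. ADP read by luminescence. IC50 from 4-parameter fit, normalized to DMSO and 1 µM TAK-593.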

PDGFRβ = PDGFRβ (Rattus norvegicus (Rat), UniProt Q05030); assay: PDGFRβ Cellular Assay (PDGFRb P-Y751 HTRF, PDGF-BB stimulated A10 cells); type: cell-based
Chain of PDGFRβ (Q05030 whole entry, looked up): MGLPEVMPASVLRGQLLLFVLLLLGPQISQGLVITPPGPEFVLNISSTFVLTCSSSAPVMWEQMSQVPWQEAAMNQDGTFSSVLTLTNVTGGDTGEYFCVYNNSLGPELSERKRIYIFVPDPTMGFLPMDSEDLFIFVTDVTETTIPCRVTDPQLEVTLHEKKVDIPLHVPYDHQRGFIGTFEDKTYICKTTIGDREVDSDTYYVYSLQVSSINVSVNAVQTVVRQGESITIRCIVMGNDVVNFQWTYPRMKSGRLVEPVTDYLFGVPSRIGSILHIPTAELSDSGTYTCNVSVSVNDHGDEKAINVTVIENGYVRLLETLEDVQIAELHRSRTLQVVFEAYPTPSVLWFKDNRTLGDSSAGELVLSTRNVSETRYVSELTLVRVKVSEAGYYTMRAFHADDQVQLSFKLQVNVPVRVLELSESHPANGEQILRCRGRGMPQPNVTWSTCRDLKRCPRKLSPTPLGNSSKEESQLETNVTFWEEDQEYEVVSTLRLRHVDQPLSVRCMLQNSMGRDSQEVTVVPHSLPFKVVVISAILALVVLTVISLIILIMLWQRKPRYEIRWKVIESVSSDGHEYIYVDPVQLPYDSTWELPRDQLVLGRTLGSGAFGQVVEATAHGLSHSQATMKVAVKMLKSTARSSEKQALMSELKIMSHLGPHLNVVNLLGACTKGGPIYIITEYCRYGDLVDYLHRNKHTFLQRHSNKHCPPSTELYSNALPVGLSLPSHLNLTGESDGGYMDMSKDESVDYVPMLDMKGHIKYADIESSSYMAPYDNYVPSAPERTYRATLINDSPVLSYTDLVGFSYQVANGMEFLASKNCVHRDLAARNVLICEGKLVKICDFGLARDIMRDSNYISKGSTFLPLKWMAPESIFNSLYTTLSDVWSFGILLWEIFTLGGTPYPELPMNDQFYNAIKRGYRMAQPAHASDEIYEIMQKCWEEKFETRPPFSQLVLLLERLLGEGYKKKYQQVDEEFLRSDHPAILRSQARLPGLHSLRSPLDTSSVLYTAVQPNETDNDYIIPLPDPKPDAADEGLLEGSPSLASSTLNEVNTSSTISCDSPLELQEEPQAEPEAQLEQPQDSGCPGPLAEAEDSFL
Procedure, shortened: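 Rat A10 cells plated overnight were treated with compound for 3 h, stimulated with rat PDGF-BB (working stock 100 ng/mL in 10% FBS medium) for 10 min, then lysed.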

[3] = 800 μM ATP, 0.5 μM TK-substrate biotin peptide, 30 min pre-incubation, 3 hours reaction, read-out: PDGFR HTRF IC50
[4] = A10 cells, 3 hours compound, 15 ng/mL PDGFbb for 10 minutes, read-out: PDGFR Cellular IC50

Chain of Tb-labeled inactive PDGFRβ (P09619 whole entry, looked up): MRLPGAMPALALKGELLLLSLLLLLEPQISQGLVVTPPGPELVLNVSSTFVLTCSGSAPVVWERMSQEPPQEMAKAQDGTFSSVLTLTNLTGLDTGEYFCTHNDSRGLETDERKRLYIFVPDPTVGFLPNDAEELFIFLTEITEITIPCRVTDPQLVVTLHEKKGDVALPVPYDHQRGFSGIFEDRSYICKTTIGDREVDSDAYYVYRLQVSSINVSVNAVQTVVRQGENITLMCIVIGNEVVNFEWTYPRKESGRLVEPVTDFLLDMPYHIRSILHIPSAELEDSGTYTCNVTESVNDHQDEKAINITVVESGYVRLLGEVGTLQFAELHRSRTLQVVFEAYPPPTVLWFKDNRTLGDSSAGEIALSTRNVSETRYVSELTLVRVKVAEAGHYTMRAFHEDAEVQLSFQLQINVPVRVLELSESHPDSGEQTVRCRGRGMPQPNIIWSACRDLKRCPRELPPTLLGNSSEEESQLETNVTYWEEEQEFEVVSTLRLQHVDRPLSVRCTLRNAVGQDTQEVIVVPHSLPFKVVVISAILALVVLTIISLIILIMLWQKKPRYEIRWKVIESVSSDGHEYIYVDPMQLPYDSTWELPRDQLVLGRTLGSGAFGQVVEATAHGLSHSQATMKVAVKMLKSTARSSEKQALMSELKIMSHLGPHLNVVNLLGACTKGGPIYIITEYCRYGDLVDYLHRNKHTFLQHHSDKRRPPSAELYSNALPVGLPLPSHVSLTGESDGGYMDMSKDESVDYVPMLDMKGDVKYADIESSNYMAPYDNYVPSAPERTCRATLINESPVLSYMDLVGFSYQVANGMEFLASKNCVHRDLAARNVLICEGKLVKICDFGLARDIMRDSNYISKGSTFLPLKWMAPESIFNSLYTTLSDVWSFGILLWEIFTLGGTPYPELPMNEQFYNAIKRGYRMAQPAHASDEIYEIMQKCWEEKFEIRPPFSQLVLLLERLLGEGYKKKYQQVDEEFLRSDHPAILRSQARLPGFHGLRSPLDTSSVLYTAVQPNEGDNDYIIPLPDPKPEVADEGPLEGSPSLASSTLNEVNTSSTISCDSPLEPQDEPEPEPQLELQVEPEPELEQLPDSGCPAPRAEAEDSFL
Chain of His6-TEV-PDGFRβ (557-1016) (P09619 whole entry, looked up): as above

Structure (SMILES)	IC50 ([1]; read-out: PDGFR Lantha IC50) [nM]	IC50 [2, 3] [nM]	IC50 (VEGFR2, unphosphorylated) [nM]	IC50 (PDGFRβ; [4]) [nM]	IC50 [1] [nM]	IC50 [2] [nM]	IC50 (PDGFRβ) [nM]
Cc1ncc(C(=O)NCCN2CCCC2(C)C)cc1Nc1nn(C)c2nc(Nc3ccnc(N4CCN(CCO)CC4)c3)ncc12 [Example 103, N-(2-(2,2-dimethylpyrrolidin-1-yl)ethyl)-5-((6-((2-(4-(2-hydroxyethyl)piperazin-1-yl)pyridin-4-yl)amino)-1-methyl-1H-pyrazolo[3,4-d]pyrimidin-3-yl)amino)-6-methylnicotinamide]	4.8	0.55	> 7500	443			
Cc1ncc(C(=O)NCCN2CCCC[C@H]2C)cc1Nc1nn(C)c2nc(Nc3cncnc3)ncc12 [Example 11, (R)-6-methyl-5-((1-methyl-6-(pyrimidin-5-ylamino)-1H-pyrazolo[3,4-d]pyrimidin-3-yl)amino)-N-(2-(2-methylpiperidin-1-yl)ethyl)nicotinamide]	5.8	0.68	~6630	68.8			
Cc1ncc(C(=O)NCCN2CCCC2(C)C)cc1Nc1nn(C)c2nc(Nc3cnn(C)c3C)ncc12 [Example 156, 5-((6-((1,5-dimethyl-1H-pyrazol-4-yl)amino)-1-methyl-1H-pyrazolo[3,4-d]pyrimidin-3-yl)amino)-N-(2-(2,2-dimethylpyrrolidin-1-yl)ethyl)-6-methylnicotinamide]	20.2	2.15	> 7500	19.7			
Cc1ncc(C(=O)NCCN2CCCC2(C)C)cc1Nc1nn(C)c2nc(Nc3ccc(=O)n(C)n3)ncc12 [Example 31, N-(2-(2,2-dimethylpyrrolidin-1-yl)ethyl)-6-methyl-5-((1-methyl-6-((1-methyl-6-oxo-1,6-dihydropyridazin-3-yl)amino)-1H-pyrazolo[3,4-d]pyrimidin-3-yl)amino)nicotinamide]	60.3	2.5	> 7500	390			
Cc1ncc(C(=O)NCCC2CCCCC2)cc1Nc1nn(C)c2nc(Nc3ccc(CC(=O)O)nc3)ncc12 [Example 106, 2-(5-((3-((5-((2-cyclohexylethyl)carbamoyl)-2-methylpyridin-3-yl)amino)-1-methyl-1H-pyrazolo[3,4-d]pyrimidin-6-yl)amino)pyridin-2-yl)acetic acid]			915		3.6	0.76	12.6
Cc1ncc(C(=O)NCCN2C[C@H](C)O[C@@H](C)C2)cc1Nc1nn(C)c2nc(Nc3cncnc3)ncc12 [Example 114, N-(2-((2S,6S)-2,6-dimethylmorpholino)ethyl)-6-methyl-5-((1-methyl-6-(pyrimidin-5-ylamino)-1H-pyrazolo[3,4-d]pyrimidin-3-yl)amino)nicotinamide]	9.1	0.88	> 7500	72.9			
CO[C@H]1CCN(CC(=O)Nc2cnc(C)c(Nc3nn(C)c4nc(Nc5cnn(C)c5)ncc34)c2)C1 [Example 136, (S)-2-(3-methoxypyrrolidin-1-yl)-N-(6-methyl-5-((1-methyl-6-((1-methyl-1H-pyrazol-4-yl)amino)-1H-pyrazolo[3,4-d]pyrimidin-3-yl)amino)pyridin-3-yl)acetamide]	3.7	0.52	> 7500	12.2			
Cc1ncc(C(=O)NCCN2CCCCC23CC3)cc1Nc1nn(C)c2nc(Nc3cncnc3)ncc12 [Example 56, N-(2-(4-azaspiro[2.5]octan-4-yl)ethyl)-6-methyl-5-((1-methyl-6-(pyrimidin-5-ylamino)-1H-pyrazolo[3,4-d]pyrimidin-3-yl)amino)nicotinamide]	3	0.54	> 7500	9.7			
Cc1ncc(C(=O)NCCN2CCCC2(C)C)cc1Nc1nn(C)c2nc(Nc3ccnc(N4CCC(CCO)CC4)c3)ncc12 [Example 111, N-(2-(2,2-dimethylpyrrolidin-1-yl)ethyl)-5-((6-((2-(4-(2-hydroxyethyl)piperidin-1-yl)pyridin-4-yl)amino)-1-methyl-1H-pyrazolo[3,4-d]pyrimidin-3-yl)amino)-6-methylnicotinamide]	5.1	0.51	> 7500	106			
Cc1ncc(NC(=O)CN2CCC[C@@H]2C)cc1Nc1nn(C)c2nc(Nc3cnn(C4COC4)c3)ncc12 [Example 144, (S)—N-(6-methyl-5-((1-methyl-6-((1-(oxetan-3-yl)-1H-pyrazol-4-yl)amino)-1H-pyrazolo[3,4-d]pyrimidin-3-yl)amino)pyridin-3-yl)-2-(2-methylpyrrolidin-1-yl)acetamide]	2.8	0.35	> 7500	5.1			
Cc1ncc(C(=O)NCCN(C(C)C)C(C)C)cc1Nc1nn(C)c2nc(Nc3cncnc3)ncc12 [Example 15, N-(2-(diisopropylamino)ethyl)-6-methyl-5-((1-methyl-6-(pyrimidin-5-ylamino)-1H-pyrazolo[3,4-d]pyrimidin-3-yl)amino)nicotinamide]	9.9	1.01	> 7500	33.2			
Cc1ncc(C(=O)NCCN2CCCC2(C)C)cc1Nc1nn(C)c2nc(Nc3ccc(=O)[nH]n3)ncc12 [Example 36, N-(2-(2,2-dimethylpyrrolidin-1-yl)ethyl)-6-methyl-5-((1-methyl-6-((6-oxo-1,6-dihydropyridazin-3-yl)amino)-1H-pyrazolo[3,4-d]pyrimidin-3-yl)amino) nicotinamide]	88.3	4.11	> 7500	> 3000			
Cc1ncc(C(=O)NCCN2CCCC2(C)C)cc1Nc1nn(C)c2nc(Nc3ccc(=O)[nH]c3)ncc12 [Example 35, N-(2-(2,2-dimethylpyrrolidin-1-yl)ethyl)-6-methyl-5-((1-methyl-6-((6-oxo-1,6-dihydropyridin-3-yl)amino)-1H-pyrazolo[3,4-d]pyrimidin-3-yl)amino)nicotinamide]	4.7	0.68	> 7500	1650			
Cc1ccc(C(=O)NCCN2CCCC2(C)C)cc1Nc1nn(C)c2nc(Nc3cnn(C)c3)ncc12 [Example 66, N-(2-(2,2-dimethylpyrrolidin-1-yl)ethyl)-4-methyl-3-((1-methyl-6-((1-methyl-1H-pyrazol-4-yl)amino)-1H-pyrazolo[3,4-d]pyrimidin-3-yl)amino)benzamide]	2.3	0.28	1330	3.4			
Cc1ncc(NC(=O)CN(CCF)C2CCCC2)cc1Nc1nn(C)c2nc(Nc3cnn(C)c3)ncc12 [Example 133, 2-(cyclopentyl(2-fluoroethyl)amino)-N-(6-methyl-5-((1-methyl-6-((1-methyl-1H-pyrazol-4-yl)amino)-1H-pyrazolo[3,4-d]pyrimidin-3-yl)amino)pyridin-3-yl)acetamide]	2.4	0.44	5550	4.1			
Cc1ncc(C(=O)NCCN2CCCC2(C)C)cc1Nc1nn(C)c2nc(Nc3cnn(C)n3)ncc12 [Example 40, N-(2-(2,2-dimethylpyrrolidin-1-yl)ethyl)-6-methyl-5-((1-methyl-6-((2-methyl-2H-1,2,3-triazol-4-yl)amino)-1H-pyrazolo[3,4-d]pyrimidin-3-yl)amino)nicotinamide]	13	1.22	> 7500	14.1			
Cc1ncc(C(=O)NCCN2CCC(C)(C)C2)cc1Nc1nn(C)c2nc(Nc3cnn(C)c3)ncc12 [Example 86, N-(2-(3,3-dimethylpyrrolidin-1-yl)ethyl)-6-methyl-5-((1-methyl-6-((1-methyl-1H-pyrazol-4-yl)amino)-1H-pyrazolo[3,4-d]pyrimidin-3-yl)amino)nicotinamide]	2.2	0.33	> 7500	18.2			
COCCn1cc(Nc2ncc3c(Nc4cc(NC(=O)CN5CC6CCC5CC6)cnc4C)nn(C)c3n2)cn1 [Example 127, 2-(2-azabicyclo[2.2.2]octan-2-yl)-N-(5-((6-((1-(2-methoxyethyl)-1H-pyrazol-4-yl)amino)-1-methyl-1H-pyrazolo[3,4-d]pyrimidin-3-yl)amino)-6-methylpyridin-3-yl)acetamide]	1.4	0.27	6490	2.6			
Cc1ncc(C(=O)NCCN2C[C@H](C)O[C@@H](C)C2)cc1Nc1nn(C)c2nc(Nc3cnn(C)c3)ncc12 (relative stereo) [Example 92, N-(2-(trans-2,6-dimethylmorpholino)ethyl)-6-methyl-5-((1-methyl-6-((1-methyl-1H-pyrazol-4-yl)amino)-1H-pyrazolo[3,4-d]pyrimidin-3-yl)amino)nicotinamide]	4.3	0.69	6700	22.8			
Cn1cc(Nc2ncc3c(Nc4cc(C(=O)NCCN5CC(C)(C)C5)ccc4F)nn(C)c3n2)cn1 [Example 120, N-(2-(3,3-dimethylazetidin-1-yl)ethyl)-4-fluoro-3-((1-methyl-6-((1-methyl-1H-pyrazol-4-yl)amino)-1H-pyrazolo[3,4-d]pyrimidin-3-yl)amino)benzamide]	3.3	0.32	> 7500	9.9			
